This note sets out measurements from the NIST ThermoML archive (doi:10.1016/j.jct.2012.09.015).

The structures appear in SMILES notation. ± gives the expanded uncertainty stated by the source.

The conditions of the data set: 101.33 kPa, Liquid; for speed of sound: Sing-around technique in a fixed-path interferometer; for mass density: Vibrating tube method.

On to `C1CCCCC1` [cyclohexane], for which the speed of sound was 1254 ± 1 m/s (298.15 K); 1229 ± 1 m/s (303.15 K); 1205 ± 1 m/s (308.15 K); 1181 ± 1 m/s (313.15 K); 1157 ± 1 m/s (318.15 K); 1134 ± 1 m/s (323.15 K). Further, the mass density stood at 773.86 ± 0.14 kg/m3 (298.15 K); 769.12 ± 0.14 kg/m3 (303.15 K); 764.35 ± 0.14 kg/m3 (308.15 K); 759.56 ± 0.14 kg/m3 (313.15 K); 754.74 ± 0.14 kg/m3 (318.15 K); 749.88 ± 0.15 kg/m3 (323.15 K).

For `CCCCCCC` [heptane], the speed of sound runs as follows: (298.15 K) 1131 ± 1 m/s; (303.15 K) 1109 ± 1 m/s; (308.15 K) 1088 ± 1 m/s; (313.15 K) 1066 ± 1 m/s; (318.15 K) 1045 ± 1 m/s; (323.15 K) 1024 ± 1 m/s. In addition, the mass density (298.15 K) is recorded as 679.91 ± 0.18 kg/m3; the mass density (303.15 K) came to 675.63 ± 0.19 kg/m3; the mass density (308.15 K) worked out at 671.33 ± 0.19 kg/m3; the mass density (313.15 K) was found to be 667.01 ± 0.19 kg/m3; the mass density (318.15 K) was 662.65 ± 0.19 kg/m3; the mass density (323.15 K) worked out at 658.26 ± 0.19 kg/m3.

As for `CCCCCC` [hexane], the speed of sound (298.15 K) is reported as 1077 ± 2 m/s; the speed of sound (303.15 K) worked out at 1054 ± 2 m/s; the speed of sound (308.15 K) turned out to be 1032 ± 2 m/s; the speed of sound (313.15 K) was found to be 1010 ± 2 m/s; the speed of sound (318.15 K) stood at 988 ± 2 m/s; the speed of sound (323.15 K) is reported as 965 ± 2 m/s. The mass density reads like this: (298.15 K) 655.21 ± 0.26 kg/m3; (303.15 K) 650.64 ± 0.26 kg/m3; (308.15 K) 646.03 ± 0.26 kg/m3; (313.15 K) 641.37 ± 0.26 kg/m3; (318.15 K) 636.67 ± 0.26 kg/m3; (323.15 K) 631.92 ± 0.26 kg/m3.

A word on the speed of sound: it is the propagation velocity of pressure waves in the medium. Usually mass density stands for the mass of a sample divided by its volume.
